Results as given in patent US10077261B2, “Imidazolin-5-one derivative useful as FASN inhibitors for the treatment of cancer” (Janssen Pharmaceutica NV, priority 2012, dated 2018).

Legend:
[1] = biological target: T1, hFASN enzyme (full length) (Homo sapiens, UniProt P49327); experiment: Fatty Acid Synthase (FASN) inhibition scintillation proximity assay; type: biochemical; settings: for inhibition at 10 µM: read-out: Human FASN % inhibition @ 10 μM, 10 μM test compound; for IC50: read-out: Human FASN pIC50 (converted)
T1 construct: 10 μL hFASN enzyme (full length, 300 ng, purified in house); made in house
Method in brief: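 Full-length in-house purified enzyme (300 ng) was tested in 100 mM KH2PO4 pH 7.5, 1 mM DTT with ³H-acetyl-CoA and malonyl-CoA as substrates; compounds ranged 0.01–30 μM. Reactions were stopped with streptavidin imaging beads, read by LEADseeker at 610 nm, and fitted to a 4-parameter logistic curve.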

[2] = test system: A2780 ovarian cells; experiment: A2780 ovarian cell proliferation assay in lipid reduced medium, with palmitate (MTT); type: cell-based; settings: Homo sapiens, A2780, 96 h; read-out: pIC50 A2780 Ovarian Cell, With Palmitate (converted)
Method in brief: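 Seeded cells were switched next day to lipid-reduced serum, exposed to compound and 25 μM palmitate complexed with fatty-acid-free BSA, and incubated 96 h. Proliferation was then determined by MTT absorbance at 544 nm, with a best-fit curve of signal against concentration.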

[3] = test system: A2780 ovarian cells; experiment: A2780 ovarian cell proliferation assay in lipid reduced medium, without palmitate (MTT); type: cell-based; settings: Homo sapiens, A2780, 96 h; read-out: pIC50 A2780 Ovarian Cell, Without Palmitate (converted)
[4] = test system: LNCaP-Vancouver prostate cells; experiment: In vitro LNCaP Vancouver prostate cell proliferation assay in lipid reduced medium; type: cell-based; settings: read-out: pIC50 LNCaP_Vancouver prostate cell (converted)
[5] = test system: PC-3M-Luc-C6 prostate cells; experiment: In vitro PC-3M-Luc-C6 prostate cell proliferation assay in lipid reduced medium; type: cell-based; settings: 96 h, read-out: pIC50 PC-3M-Luc-C6 prostate cell (converted)
[6] = biological target: Fatty Acid Synthase Keto-reductase Domain (FASN KR) (Homo sapiens, UniProt P49327); experiment: Fatty Acid Synthase keto-reductase domain (FASN KR) inhibition, NADPH oxidation at 340 nm
Chain of Fatty Acid Synthase Keto-reductase Domain (FASN KR) (P49327 whole entry, the tested form may be a part): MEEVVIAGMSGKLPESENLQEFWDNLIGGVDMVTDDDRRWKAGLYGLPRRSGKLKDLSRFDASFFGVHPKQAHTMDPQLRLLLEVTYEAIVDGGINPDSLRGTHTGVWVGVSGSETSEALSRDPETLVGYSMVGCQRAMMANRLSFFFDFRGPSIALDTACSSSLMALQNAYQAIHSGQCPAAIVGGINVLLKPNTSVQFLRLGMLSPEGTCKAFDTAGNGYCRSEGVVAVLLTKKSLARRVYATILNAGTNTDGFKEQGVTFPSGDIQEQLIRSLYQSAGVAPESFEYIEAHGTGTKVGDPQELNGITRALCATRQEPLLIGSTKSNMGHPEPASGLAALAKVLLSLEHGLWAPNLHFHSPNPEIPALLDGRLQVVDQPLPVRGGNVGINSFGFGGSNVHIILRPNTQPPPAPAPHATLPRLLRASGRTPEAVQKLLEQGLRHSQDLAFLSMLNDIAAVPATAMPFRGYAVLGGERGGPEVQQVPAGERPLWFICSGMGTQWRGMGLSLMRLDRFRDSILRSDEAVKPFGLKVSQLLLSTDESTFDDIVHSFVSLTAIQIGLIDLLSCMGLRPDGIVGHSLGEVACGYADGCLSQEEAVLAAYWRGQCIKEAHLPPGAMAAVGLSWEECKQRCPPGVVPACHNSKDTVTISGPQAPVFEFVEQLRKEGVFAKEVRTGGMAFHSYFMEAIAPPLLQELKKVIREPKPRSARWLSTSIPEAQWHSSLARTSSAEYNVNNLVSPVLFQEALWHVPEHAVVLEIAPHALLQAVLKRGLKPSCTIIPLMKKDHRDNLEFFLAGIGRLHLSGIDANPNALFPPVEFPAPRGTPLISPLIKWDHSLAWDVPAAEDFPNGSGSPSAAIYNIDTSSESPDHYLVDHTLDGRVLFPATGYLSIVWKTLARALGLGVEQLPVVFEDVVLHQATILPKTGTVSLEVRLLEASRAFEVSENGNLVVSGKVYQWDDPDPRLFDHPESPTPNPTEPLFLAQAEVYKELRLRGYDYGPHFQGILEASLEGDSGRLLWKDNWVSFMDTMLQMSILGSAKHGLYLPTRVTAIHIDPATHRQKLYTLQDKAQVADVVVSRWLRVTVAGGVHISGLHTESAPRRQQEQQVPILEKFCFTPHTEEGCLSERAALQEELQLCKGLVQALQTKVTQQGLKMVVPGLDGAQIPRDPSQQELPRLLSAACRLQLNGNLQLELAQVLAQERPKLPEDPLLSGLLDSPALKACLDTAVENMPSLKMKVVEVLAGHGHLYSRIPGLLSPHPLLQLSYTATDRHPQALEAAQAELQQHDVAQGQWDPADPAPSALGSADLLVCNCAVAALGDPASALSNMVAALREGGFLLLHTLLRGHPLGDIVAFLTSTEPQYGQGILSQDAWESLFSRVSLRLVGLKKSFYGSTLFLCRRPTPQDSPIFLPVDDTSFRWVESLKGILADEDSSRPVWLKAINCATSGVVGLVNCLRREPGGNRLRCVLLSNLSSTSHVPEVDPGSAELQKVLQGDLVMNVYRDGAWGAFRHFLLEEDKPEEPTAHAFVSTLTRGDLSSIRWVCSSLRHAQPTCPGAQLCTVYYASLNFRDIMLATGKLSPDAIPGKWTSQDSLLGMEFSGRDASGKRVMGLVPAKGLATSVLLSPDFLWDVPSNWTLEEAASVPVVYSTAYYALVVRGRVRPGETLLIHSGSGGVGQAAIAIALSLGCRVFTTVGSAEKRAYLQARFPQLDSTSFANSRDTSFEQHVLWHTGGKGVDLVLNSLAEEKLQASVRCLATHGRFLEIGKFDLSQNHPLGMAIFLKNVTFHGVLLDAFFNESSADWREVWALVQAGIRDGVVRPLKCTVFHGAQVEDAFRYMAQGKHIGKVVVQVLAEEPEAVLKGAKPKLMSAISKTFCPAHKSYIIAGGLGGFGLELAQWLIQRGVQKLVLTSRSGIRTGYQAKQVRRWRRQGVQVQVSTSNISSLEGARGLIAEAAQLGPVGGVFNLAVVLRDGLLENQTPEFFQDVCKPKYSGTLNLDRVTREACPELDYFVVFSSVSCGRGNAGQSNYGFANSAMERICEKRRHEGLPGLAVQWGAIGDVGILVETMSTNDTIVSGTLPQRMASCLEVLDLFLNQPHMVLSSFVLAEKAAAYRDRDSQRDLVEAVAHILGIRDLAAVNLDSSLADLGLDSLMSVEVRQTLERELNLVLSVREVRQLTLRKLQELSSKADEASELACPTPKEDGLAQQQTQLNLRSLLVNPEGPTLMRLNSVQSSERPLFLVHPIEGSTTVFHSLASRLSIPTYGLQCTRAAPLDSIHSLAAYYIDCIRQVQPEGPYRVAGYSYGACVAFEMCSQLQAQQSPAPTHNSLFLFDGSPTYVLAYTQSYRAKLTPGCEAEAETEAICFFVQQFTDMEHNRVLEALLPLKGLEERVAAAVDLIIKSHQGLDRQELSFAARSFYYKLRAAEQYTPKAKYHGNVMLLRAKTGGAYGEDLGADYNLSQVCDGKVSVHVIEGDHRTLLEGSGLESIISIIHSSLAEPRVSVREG
Description: After 20 minutes incubation at room temperature the plate was measured again (T2).
The decrease in absorbance was calculated as (Absorbance before incubation T1)−(Absorbance following incubation T2).
A plot of Controlmin versus test compound concentration was fitted to a 4-parameter logistic curve using a non-linear least squares regression method.

T1 sequence (P49327 whole entry): as the sequence (P49327 whole entry, the tested form may be a part) above

| SMILES | inhibition at 10 µM [1] [%] | IC50 [1] [µM] | IC50 [2] [µM] | IC50 [3] [µM] | IC50 [4] [µM] | IC50 [5] [µM] | IC50 [6] [µM] |
| --- | --- | --- | --- | --- | --- | --- | --- |
| O=C(C1CC1)N1CC[C@@H](CN2C(=O)C3(CC3)N=C2c2ccc(-c3cccc4[nH]ncc34)c(F)c2)C1 [compound 237, (R)-6-((1-(cyclopropanecarbonyl)pyrrolidin-3-yl)methyl)-5-(3-fluoro-4-(1H-indazol-4-yl)phenyl)-4,6-diazaspiro[2.4]hept-4-en-7-one] | 100 | 0.0794 | > 10 | 0.0355 | 0.631 | ~0.0741 | 0.12 |
| Cc1cc(C2=NC3(CC3)C(=O)N2C[C@@H]2CCN(C(=O)C3CC3)C2)ccc1-c1ccc2[nH]ccc2c1 [compound 238, (R)-5-(4-(1H-indol-5-yl)-3-methylphenyl)-6-((1-(cyclopropanecarbonyl)pyrrolidin-3-yl)methyl)-4,6-diazaspiro[2.4]hept-4-en-7-one] | 98 | 0.0437 | > 10 | 0.0427 | 0.245 | 0.0708 | 0.105 |
| O=C(C1CC1)N1CC[C@@H](CN2C(=O)C3(CC3)N=C2c2ccc(-c3ccc4occc4c3)cc2F)C1 [compound 240, (R)-5-(4-(benzofuran-5-yl)-2-fluorophenyl)-6-((1-(cyclopropanecarbonyl)pyrrolidin-3-yl)methyl)-4,6-diazaspiro[2.4]hept-4-en-7-one] | 101 | 0.0123 | > 6.17 | 0.2 | 0.537 | ~0.166 | 0.0263 |
| O=C(C1CC1)N1CC[C@@H](CN2C(=O)C3(CC3)N=C2c2ccc(-c3ccc4sccc4c3)cc2F)C1 [compound 241, (R)-5-(4-(benzo[b]thiophen-5-yl)-2-fluorophenyl)-6-((1-(cyclopropanecarbonyl)pyrrolidin-3-yl)methyl)-4,6-diazaspiro[2.4]hept-4-en-7-one] | 100 | 0.0219 | > 10 | ~0.0759 | 0.166 | ~0.0562 | 0.0288 |
| Cc1cc2cc(-c3ccc(C4=NC5(CC5)C(=O)N4C[C@@H]4CCN(C(=O)C5CC5)C4)c(F)c3)ccc2o1 [compound 242, (R)-6-((1-(cyclopropanecarbonyl)pyrrolidin-3-yl)methyl)-5-(2-fluoro-4-(2-methylbenzofuran-5-yl)phenyl)-4,6-diazaspiro[2.4]hept-4-en-7-one] | 103 | 0.0191 | > 10 | ~0.724 | ~1.58 | ~0.646 | 0.0355 |
| Cc1cc2cc(-c3ccc(C4=NC5(CC5)C(=O)N4C[C@@H]4CCN(C(=O)C5CC5)C4)c(F)c3)ccc2s1 [compound 243, (R)-6-((1-(cyclopropanecarbonyl)pyrrolidin-3-yl)methyl)-5-(2-fluoro-4-(2-methylbenzo[b]thiophen-5-yl)phenyl)-4,6-diazaspiro[2.4]hept-4-en-7-one] | 104 | 0.0224 | > 6.17 | 0.646 | 0.832 | ~0.24 | 0.0417 |
| Cc1oc2ccc(-c3ccc(C4=NC5(CC5)C(=O)N4C[C@@H]4CCN(C(=O)C5CC5)C4)c(F)c3)cc2c1C [compound 244, (R)-6-((1-(cyclopropanecarbonyl)pyrrolidin-3-yl)methyl)-5-(4-(2,3-dimethylbenzofuran-5-yl)-2-fluorophenyl)-4,6-diazaspiro[2.4]hept-4-en-7-one] | 101 | 0.0562 | > 10 | ~2.24 | 1.82 | ~1.41 | 0.0562 |
| Cc1sc2ccc(-c3ccc(C4=NC5(CC5)C(=O)N4C[C@@H]4CCN(C(=O)C5CC5)C4)c(F)c3)cc2c1C [compound 245] | 98 | 0.0324 | > 10 | 1.55 | ~1.7 | ~0.646 | 0.0372 |
| O=C(C1CC1)N1CC[C@@H](CN2C(=O)C3(CC3)N=C2c2ccc(-c3ccc4[nH]ccc4c3)cc2F)C1 [compound 246, (R)-6-((1-(cyclopropanecarbonyl)pyrrolidin-3-yl)methyl)-5-(2-fluoro-4-(1H-indol-5-yl)phenyl)-4,6-diazaspiro[2.4]hept-4-en-7-one] | 101 | 0.017 | > 10 | ~0.00501 | 0.0155 | 0.00479 | 0.038 |
| O=C(C1CC1)N1CC[C@@H](CN2C(=O)C3(CC3)N=C2c2ccc(-c3ccc4cc[nH]c4c3)cc2F)C1 [compound 247, (R)-6-((1-(cyclopropanecarbonyl)pyrrolidin-3-yl)methyl)-5-(2-fluoro-4-(1H-indol-6-yl)phenyl)-4,6-diazaspiro[2.4]hept-4-en-7-one] | 103 | 0.0162 | > 10 | 0.00501 | 0.0234 | 0.00724 | 0.0178 |
| O=C(C1CC1)N1CC[C@@H](CN2C(=O)C3(CC3)N=C2c2ccc(-c3ccc4cccnc4c3)cc2F)C1 [compound 249, (R)-6-((1-(cyclopropanecarbonyl)pyrrolidin-3-yl)methyl)-5-(2-fluoro-4-(quinolin-7-yl)phenyl)-4,6-diazaspiro[2.4]hept-4-en-7-one] | 102 | 0.017 | > 10 | ~0.0055 | 0.0166 | 0.00417 | 0.0195 |
| O=C(C1CC1)N1CC[C@@H](CN2C(=O)C3(CC3)N=C2c2ccc(-c3cccc4ncccc34)cc2F)C1 [compound 250, (R)-6-((1-(cyclopropanecarbonyl)pyrrolidin-3-yl)methyl)-5-(2-fluoro-4-(quinolin-5-yl)phenyl)-4,6-diazaspiro[2.4]hept-4-en-7-one] | 100 | 0.049 | > 10 | 0.302 | 0.692 | 0.234 | 0.0692 |
| O=C(C1CC1)N1CC[C@@H](CN2C(=O)C3(CC3)N=C2c2ccc(-c3nc4ccccc4o3)cc2F)C1 [compound 251, (R)-5-(4-(benzo[d]oxazol-2-yl)-2-fluorophenyl)-6-((1-(cyclopropanecarbonyl)pyrrolidin-3-yl)methyl)-4,6-diazaspiro[2.4]hept-4-en-7-one] | 101 | 0.0324 | > 10 | 0.0724 | 0.138 | ~0.0417 | 0.0427 |
| O=C(C1CC1)N1CC[C@@H](CN2C(=O)C3(CC3)N=C2c2ccc(-c3ccc4[nH]ncc4c3)cc2F)C1 [compound 253, (R)-6-((1-(cyclopropanecarbonyl)pyrrolidin-3-yl)methyl)-5-(2-fluoro-4-(1H-indazol-5-yl)phenyl)-4,6-diazaspiro[2.4]hept-4-en-7-one] | 97 | 0.0355 | > 10 | 0.012 | 0.0646 | 0.0141 | 0.0275 |
| N#Cc1cc2cc(-c3ccc(C4=NC5(CC5)C(=O)N4C[C@@H]4CCN(C(=O)C5CC5)C4)c(F)c3)ccc2o1 [compound 254, (R)-5-(4-(6-((1-(cyclopropanecarbonyl)pyrrolidin-3-yl)methyl)-7-oxo-4,6-diazspiro[2.4]hept-4-en-5-yl)-3-fluorophenyl)benzofuran-2-carbonitrile] | 100 | 0.0295 | > 10 | 0.437 | 1.38 | 0.224 | 0.0501 |
| Cc1cc(-c2ccc3oc(C#N)cc3c2)ccc1C1=NC2(CC2)C(=O)N1C[C@@H]1CCN(C(=O)C2CC2)C1 [compound 255, (R)-5-(4-(6-((1-(cyclopropanecarbonyl)pyrrolidin-3-yl)methyl)-7-oxo-4,6-diazaspiro[2.4]hept-4-en-5-yl)-3-methylphenyl)benzofuran-2-carbonitrile] | 99 | 0.0631 | > 10 | ~0.977 | 1.12 | ~0.525 | 0.0832 |
| N#Cc1cc2cc(-c3ccc(C4=NC5(CC5)C(=O)N4C[C@@H]4CCN(C(=O)C5CC5)C4)cc3)ccc2o1 [compound 256, (R)-5-(4-(6-((1-(cyclopropanecarbonyl)pyrrolidin-3-yl)methyl)-7-oxo-4,6-diazaspiro[2.4]hept-4-en-5-yl)phenyl)benzofuran-2-carbonitrile] | 95 | 0.0537 | > 10 | 0.832 | 2.4 | ~0.417 | 0.0955 |
| O=C(C1CC1)N1CC[C@@H](CN2C(=O)C3(CC3)N=C2c2ccc(-c3ccc4cncnc4c3)cc2F)C1 [compound 258, (R)-6-((1-(cyclopropanecarbonyl)pyrrolidin-3-yl)methyl)-5-(2-fluoro-4-(quinazolin-7-yl)phenyl)-4,6-diazaspiro[2.4]hept-4-en-7-one] | 94 | 0.0724 | > 10 | ~0.0112 | 0.0316 | 0.0145 | 0.0832 |
